According to patent US9540397B2, “BACE1 inhibitors” (Hoffmann-La Roche Inc., priority 2014, dated 2017):
pIC50: −log10 of the molar value.

How the values were obtained:
[1] = test system: Aβ40 in brain of wild-type mice; experiment: Lowering of Aβ40 in brain of wild-type mice; assay type: in vivo; conditions: Mus musculus, po; female C57Bl/6J mice, 30 mg/kg per os, 4 h; brain Aβ40 related to the value in the vehicle group; read-out: Aβ40 (wt mice, brain)
Experimental: Lowering of Aβ40 in Brain of Wild-Type Mice:
Animals and Housing Conditions.
Animals were maintained in a 12/12 h light/dark cycle, with lights starting at 6 a.m., and experiments were conducted during the light phase. Animal housing and experimental procedures were in line with ethical and legal guidelines and were authorized by local veterinary authorities.
Experiment. Female C57Bl/6J mice were treated with a dose of 30 mg/kg of the compounds, 3-4 animals per treatment group. The test compound was dissolved in 5% EtOH, 10% Solutol, and was applied per os at 10 mL/kg. After 4 h, the animals were sacrificed and brain and plasma were collected. The brain was cut into halves and immediately frozen on dry ice. Brain was used for measurement of Aβ40 and plasma was used for determination of compound exposure. […] Brain tissue was homogenized in 2% DEA buffer in a Roche MagnaLyser (20″, 4000 rpm) and subsequently centrifuged for 1 h at 100000 g. DEA was reduced to 0.2% in 50 mM NaCl and one-half of the DEA lysate was passed over an Oasis Solid phase extraction plate (Waters; cat. no. 186000679), which had been activated with MeOH and equilibrated in dH2O (1 mL each). After washes in 10% and 30% MeOH (1 mL each), the Aβ-peptides were eluted in 0.8 mL of 2% NH4OH in 90% MeOH. The eluate was dried over a N2 flow, and the dried sample was reconstituted in 30 μL of AlphaLISA assay buffer. Aβ40 was determined by an AlphaLISA assay (Perkin-Elmer). In a white 96-well, half area microplate (Perkin-Elmer cat. no. 6005561), 20 μL of the reconstituted sample were mixed with 5 μL of biotinylated BAP-24 (specific for C-terminus of Aβ40) (Brockhaus, M.; Grunberg, J.; Rohrig, S.; Loetscher, H.; Wittenburg, N.; Baumeister, R.; Jacobsen, H.; Haass, C. Caspasemediated cleavage is not required for the activity of presenilins in amyloidogenesis and NOTCH signaling. NeuroReport 1998, 9, 1481-1486.) stock=4.4 mg/mL, f.c.5.5 μg/mL), and 5 μL 252Q6 acceptor beads (252Q6 antibody, Invitrogen AMB0062) had been previously conjugated with AlphaLISA Acceptor beads (Perkin-Elmer cat. no. 6772002); final dilution 1:500). The mix was incubated for 1 h at RT in the dark. Then 20 μL of Streptavin-coated Donor Beads (Perkin-Elmer cat. no. 6760002, final dilution 1:125) were added and this final mix was incubated in the dark for another 30 min at RT before RFU was measured in an AlphaScreen Reader (Perkin-Elmer Envision 2104). The value obtained for Aβ40 in the treated animals was related to the value in the vehicle group and is given in %. Alternatively a commercial ELISA was used for Aβ40 determination (Wako ELISA: (“Human/Rat β Amyloid (40) ELISA kit Wako II”; cat nr. 294-64701) following the manufacture's instruction. Also here the Aβ-lowering efficacy was calculated as percentage of the vehicle group.

BACE1 = molecular target: T1, BACE1 (Homo sapiens, UniProt P56817); experiment: Cellular Aβ-lowering assay (Abeta 40 AlphaLISA, HEK293 APP cells); assay type: cell-based; conditions: 18-20 hrs incubation, Aβ40 in culture supernatant, read-out: BACE1 cell act. Aβ40 IC50
T1 construct: endogenous in cells; host or cells: HEK293 APP cells
T1 sequence (P56817 46-501): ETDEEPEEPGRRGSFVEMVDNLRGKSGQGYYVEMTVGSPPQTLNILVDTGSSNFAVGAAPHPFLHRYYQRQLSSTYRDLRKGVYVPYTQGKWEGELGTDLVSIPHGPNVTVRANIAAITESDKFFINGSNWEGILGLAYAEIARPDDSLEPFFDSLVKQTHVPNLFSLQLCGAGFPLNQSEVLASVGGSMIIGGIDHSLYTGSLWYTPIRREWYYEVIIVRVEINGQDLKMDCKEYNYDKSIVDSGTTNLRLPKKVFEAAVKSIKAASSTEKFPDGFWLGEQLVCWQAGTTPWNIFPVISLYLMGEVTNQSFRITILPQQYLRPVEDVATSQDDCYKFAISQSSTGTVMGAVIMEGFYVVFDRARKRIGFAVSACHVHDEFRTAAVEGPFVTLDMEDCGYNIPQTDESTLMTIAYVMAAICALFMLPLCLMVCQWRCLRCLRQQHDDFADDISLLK
Experimental: Cellular Aβ-lowering assay:
The Abeta 40 AlphaLISA Assay can be used. The HEK293 APP cells were seeded in 96 well Microtiter plates in cell culture medium (Iscove's, plus 10% (v/v) fetal bovine serum, penicillin/streptomycin) to about 80% confluency and the compounds were added at a 3× concentration in ⅓ volume of culture medium (final DMSO concentration was kept at 1% v/v). After 18-20 hrs incubation at 37° C. and 5% CO2 in a humidified incubator, the culture supernatants were harvested for the determination of AP 40 concentrations using Perkin-Elmer Human Amyloid beta 1-40 (high specificity) Kit (Cat#AL275C).
In a Perkin-Elmer White Optiplate-384 (Cat#6007290), 2 ul culture supernatants were combined with 2 μl of a 10× AlphaLISA Anti-hAβ Acceptor beads+Biotinylated Antibody Anti-Aβ 1-40 Mix ([…]/5 nM). After 1 hour room temperature incubation, 16 μl of a 1.25× preparation of Streptavidin (SA) Donor beads (25 μg/mL) were added and incubated for 30 minutes in the Dark. Light Emission at 615 nm was then recorded using EnVision-Alpha Reader. Levels of Aβ 40 in the culture supernatants were calculated as percentage of maximum signal (cells treated with 1% DMSO without inhibitor). The IC50 values were calculated using the Excel XLfit software.

Row | pIC50 (BACE1) | SMILES | response vs control in vivo at 30 mg/kg [1] [%]
1 | 9.22 | CC1(C)C(N)=N[C@](C)(c2nc(NC(=O)c3ncc(Cl)cc3Cl)ccc2F)[C@@H]2CCN=[S@@]21=O [Example 29AB, N-(6-((3aS,4R,8R)-6-amino-4,7,7-trimethyl-8-oxido-3,3a,4,7-tetrahydro-2H-isothiazolo[1,5-a][1,4]thiazin-4-yl)-5-fluoropyridin-2-yl)-3,5-dichloropicolinamide] | 88
2 | 8.41 | Cc1cc(C#N)cnc1C(=O)Nc1ccc(F)c([C@@]2(C)N=C(N)C(C)(C)[S@]3(=O)=NCCC[C@@H]23)n1 [Example 1BB, N-(6-((4aS,5R,9S)-7-amino-5,8,8-trimethyl-9-oxido-2,3,4,4a,5,8-hexahydro-[1,4]thiazino[2,1-f][1,2]thiazin-5-yl)-5-fluoropyridin-2-yl)-5-cyano-3-methylpicolinamide] | 93
3 | 8.11 | CC1(C)C(N)=N[C@](C)(c2nc(NC(=O)c3cnc(OC(F)F)cn3)ccc2F)[C@@H]2CCN=[S@@]21=O [Example 26AB, N-(6-((3aS,4R,8R)-6-amino-4,7,7-trimethyl-8-oxido-3,3a,4,7-tetrahydro-2H-isothiazolo[1,5-a][1,4]thiazin-4-yl)-5-fluoropyridin-2-yl)-5-(difluoromethoxy)pyrazine-2-carboxamide] | 82
4 | 7.73 | COc1cnc(C(=O)Nc2ccc(F)c([C@@]3(C)N=C(N)C(C)(C)[S@@]4(=O)=NCCC[C@@H]34)n2)cn1 [Example 2AB, N-(6-((4aS,5R,9R)-7-amino-5,8,8-trimethyl-9-oxido-2,3,4,4a,5,8-hexahydro-[1,4]thiazino[2,1-f][1,2]thiazin-5-yl)-5-fluoropyridin-2-yl)-5-methoxypyrazine-2-carboxamide] | 92
5 | 6.84 | CC1(C)C(N)=N[C@](C)(c2nc(NC(=O)c3ccc(OCC(F)(F)C(F)F)cn3)ccc2F)[C@@H]2CCN=[S@@]21=O [Example 15AB, N-(6-((3aS,4R,8R)-6-amino-4,7,7-trimethyl-8-oxido-3,3a,4,7-tetrahydro-2H-isothiazolo[1,5-a][1,4]thiazin-4-yl)-5-fluoropyridin-2-yl)-5-(2,2,3,3-tetrafluoropropoxy)picolinamide] | 100
6 | 9.30 | Cc1cc(C#N)cnc1C(=O)Nc1ccc(F)c([C@@]2(C)N=C(N)C(C)(C)[S@]3(=O)=NCCC[C@H]23)n1 [Example 1BA, N-(6-((4aR,5R,9S)-7-amino-5,8,8-trimethyl-9-oxido-2,3,4,4a,5,8-hexahydro-[1,4]thiazino[2,1-f][1,2]thiazin-5-yl)-5-fluoropyridin-2-yl)-5-cyano-3-methylpicolinamide] | 95
7 | 8.92 | Cc1cc(C#N)cnc1C(=O)Nc1ccc(F)c([C@@]2(C)N=C(N)C(C)(C)[S@@]3(=O)=NCC(F)(F)C[C@H]23)n1 [Example 32AA, N-(6-((4aR,5R,9R)-7-amino-3,3-difluoro-5,8,8-trimethyl-9-oxido-2,3,4,4a,5,8-hexahydro-[1,4]thiazino[2,1-f][1,2]thiazin-5-yl)-5-fluoropyridin-2-yl)-5-cyano-3-methylpicolinamide] | 53
8 | 7.82 | CC1(C)C(N)=N[C@](C)(c2nc(NC(=O)c3ccc(F)cn3)ccc2F)[C@@H]2CCN=[S@@]21=O [Example 27AB, N-(6-((3aS,4R,8R)-6-amino-4,7,7-trimethyl-8-oxido-3,3a,4,7-tetrahydro-2H-isothiazolo[1,5-a][1,4]thiazin-4-yl)-5-fluoropyridin-2-yl)-5-fluoropicolinamide] | 92
9 | 8.55 | CC1(C)C(N)=N[C@](C)(c2nc(NC(=O)c3ncc(OC(F)F)cc3Cl)ccc2F)[C@@H]2CCN=[S@@]21=O [Example 28AB, N-(6-((3aS,4R,8R)-6-amino-4,7,7-trimethyl-8-oxido-3,3a,4,7-tetrahydro-2H-isothiazolo[1,5-a][1,4]thiazin-4-yl)-5-fluoropyridin-2-yl)-3-chloro-5-(difluoromethoxy)picolinamide] | 100
